Experimental data taken from PMC4515785 (Journal of Medicinal Chemistry, 2015).
Marks after values point to notes of the source that are not given here.

Key:
[1] = system: P. falciparum D6; test: Plasmodium falciparum SYBR Green fluorescence; type: cell-based; settings: D6, drug sensitive strain; for EC50: read-out: P. falciparum D6 EC50
[2] = system: HepG2 cells; test: HepG2 toxicity assay; type: cell-based; settings: 48 h, MTT
[3] = system: T. cruzi Tulahuen strain expressing β-galactosidase; test: Trypanosoma cruzi intracellular amastigote assay in 3T3 cells; type: cell-based; settings: for EC50: read-out: T. cruzi EC50; for EC50 / T. cruzi EC50: intracellular amastigotes in 3T3 cells, 96 h
[4] = system: L. major promastigotes; test: Leishmania major promastigote assay; type: cell-based; settings: for EC50: read-out: L. major EC50 Promast
[5] = Human liver microsomes intrinsic clearance; type: in vitro ADME
[6] = plasma protein binding; type: in vitro ADME
[7] = system: T. brucei; settings: read-out: T. brucei EC50; previously reported quinazoline analogs; cited from earlier work
[8] = male rat hepatocytes intrinsic clearance; type: in vitro ADME

Q: With “N-(3-Chloro-4-((3-fluorobenzyl)oxy)phenyl)-6-(4-((4-methylpiperazin-1-yl)sulfonyl)phenyl)thieno[2,3-d]pyrimidin-4-amine [compound 90]” as the compound, how does the EC50 [1] read?
A: 0.043 µM

Q: What about the “HepG2 TC50” value [2] of the same compound?
A: >15 µM

Q: And the EC50 [3]?
A: 48 µM

Q: And the EC50 [4]?
A: > 15 µM

Q: For `CN1CCCN(S(=O)(=O)c2ccc(-c3ccc4c(Nc5ccc(OCc6cccc(F)c6)c(Cl)c5)ccnc4c3)cc2)CC1` [compound 52, N-(3-Chloro-4-((3-fluorobenzyl)oxy)phenyl)-7-(4-((4-methyl-1,4-diazepan-1-yl)sulfonyl)phenyl)quinolin-4-amine], which “T. cruzi EC50” value [3] is on record?
A: submicromolar potency

Q: With `CN1CCCN(S(=O)(=O)c2ccc(-c3ccc4c(Nc5ccc(OCc6cccc(F)c6)c(Cl)c5)nncc4c3)cc2)CC1` [compound 76, N-(3-Chloro-4-((3-fluorobenzyl)oxy)phenyl)-6-(4-((4-methyl-1,4-diazepan-1-yl)sulfonyl)phenyl)phthalazin-1-amine] as the compound, how does the “P. falciparum D6 EC50” value [1] read?
A: equipotent to 5

Q: With `O=S(=O)(c1ccc(-c2ccc3ncnc(Nc4ccc(OCc5ccccc5)c(Cl)c4)c3c2)cc1)N1CCOCC1` [compound 3] as the compound, how does the “T. cruzi % inh at 10 μM” value ([3]; 10 μM) read?
A: (9.5)* %

Q: Which “HepG2 TC50” value [2] does the source give for “N-(3-Chloro-4-((3-fluorobenzyl)oxy)phenyl)-6-(4-((4-methyl-1,4-diazepan-1-yl)sulfonyl)phenyl)thieno[2,3-d]pyrimidin-4-amine [compound 92]” here?
A: >15 µM

Q: And the EC50 [3]?
A: 15 µM

Q: For “N-(4-(Benzyloxy)-3-chlorophenyl)-6-(4-(morpholinosulfonyl)phenyl)thieno[3,2-d]pyrimidin-4-amine [compound 87]”, which EC50 [1] is on record?
A: 0.62 µM

Q: And the “HepG2 TC50” value [2]?
A: >5 µM

Q: What about the EC50 [3] of the same compound?
A: > 50 µM

Q: What about the EC50 [4] of the same compound?
A: > 3 µM

Q: For `O=S(=O)(c1ccc(-c2ccc3nccc(Nc4ccc(OCc5ccccc5)c(Cl)c4)c3c2)cc1)N1CCOCC1` [compound 47, N-(4-(Benzyloxy)-3-chlorophenyl)-6-(4-(morpholinosulfonyl)phenyl)quinolin-4-amine], which microsomal CLint [5] is on record?
A: 78.9 µL/min/mg

Q: And the “plasma protein binding (% free)” value [6]?
A: <1 % free

Q: Which EC50 [1] does the source give for “N-(3-Chloro-4-((3-fluorobenzyl)oxy)phenyl)-6-(3-morpholinophenyl)thieno[2,3-d]pyrimidin-4-amine [compound 86]” here?
A: 0.52 µM

Q: What about the “HepG2 TC50” value [2] of the same compound?
A: >15 µM

Q: And the EC50 [3]?
A: 2.2 µM

Q: What about the EC50 [4] of the same compound?
A: > 15 µM

Q: What does the source list for `CN1CCCN(S(=O)(=O)c2ccc(-c3ccc4ncc(C#N)c(Nc5ccc(OCc6cccc(F)c6)c(Cl)c5)c4c3)cc2)CC1` [compound 83, 4-((3-Chloro-4-((3-fluorobenzyl)oxy)phenyl)amino)-6-(4-((4-methyl-1,4-diazepan-1-yl)sulfonyl)phenyl)quinoline-3-carbonitrile]?
A: microsomal CLint [5]: 152 µL/min/mg; fold increase in T. cruzi potency over matched des-fluoro analog ([3]; 83 vs 84): 10 fold; fold improvement in T. cruzi potency over matched quinazoline analog 4 ([3]; vs 4): 5 fold; plasma protein binding (% free) [6]: <1 % free

Q: With `CN1CCN(S(=O)(=O)c2ccc(-c3ccc4ncnc(Nc5ccc(OCc6cccc(F)c6)c(Cl)c5)c4c3)cc2)CC1` [compound 5] as the compound, how does the EC50 [7] read?
A: 0.53 µM

Q: Which results are given for `CN1CCCN(S(=O)(=O)c2ccc(-c3ccc4c(Nc5ccc(OCc6cccc(F)c6)c(Cl)c5)cnnc4c3)cc2)CC1` [compound 68, N-(3-Chloro-4-((3-fluorobenzyl)oxy)phenyl)-7-(4-((4-methyl-1,4-diazepan-1-yl)sulfonyl)phenyl)cinnolin-4-amine]?
A: microsomal CLint [5]: 99.3 µL/min/mg; plasma protein binding (% free) [6]: <1 % free

Q: Which results are given for `Fc1cccc(COc2ccc(Nc3ncnc4ccc(-c5cccc(N6CCOCC6)c5)cc34)cc2Cl)c1` [compound 1]?
A: microsomal CLint [5]: 63 µL/min/mg; hepatocyte CLint [8]: 44.5 µL/min/1e6 cells; plasma protein binding (% free) [6]: <1 % free

Q: With `CN1CCCN(S(=O)(=O)c2ccc(-c3ccc4nccc(Nc5ccc(OCc6cccc(F)c6)c(Cl)c5)c4c3)cc2)CC1` [compound 51, N-(3-Chloro-4-((3-fluorobenzyl)oxy)phenyl)-6-(4-((4-methyl-1,4-diazepan-1-yl)sulfonyl)phenyl)quinolin-4-amine] as the compound, how does the “T. cruzi EC50” value [3] read?
A: submicromolar potency

Q: For “N-(4-(Benzyloxy)-3-chlorophenyl)-6-(4-(morpholinosulfonyl)phenyl)thieno[2,3-d]pyrimidin-4-amine [compound 88]”, which EC50 [1] is on record?
A: 0.22 µM

Q: And the “HepG2 TC50” value [2]?
A: >15 µM

Q: And the EC50 [3]?
A: > 50 µM

Q: What about the EC50 [4] of the same compound?
A: > 15 µM

Q: With `CN1CCCN(S(=O)(=O)c2ccc(-c3ccc4ncnc(Nc5ccc(OCc6cccc(F)c6)c(Cl)c5)c4c3)cc2)CC1` [compound 4] as the compound, how does the EC50 [7] read?
A: 0.81 µM

Q: With `CN1CCN(S(=O)(=O)c2ccc(-c3ccc4c(Nc5ccc(OCc6cccc(F)c6)c(Cl)c5)ccnc4c3)cc2)CC1` [compound 50, N-(3-Chloro-4-((3-fluorobenzyl)oxy)phenyl)-7-(4-((4-methylpiperazin-1-yl)sulfonyl)phenyl)quinolin-4-amine] as the compound, how does the microsomal CLint [5] read?
A: 143 µL/min/mg

Q: What about the “T. cruzi EC50” value [3] of the same compound?
A: submicromolar potency

Q: And the “plasma protein binding (% free)” value [6]?
A: <1 % free

Q: For `CN1CCCN(S(=O)(=O)c2ccc(-c3ccc4ccnc(Nc5ccc(OCc6cccc(F)c6)c(Cl)c5)c4c3)cc2)CC1` [compound 59, N-(3-Chloro-4-((3-fluorobenzyl)oxy)phenyl)-7-(4-((4-methyl-1,4-diazepan-1-yl)sulfonyl)phenyl)isoquinolin-1-amine], which “fold less potent against T. cruzi” value ([3]; compared with the quinazoline 4) is on record?
A: 10 fold

Q: For `O=S(=O)(c1ccc(-c2ccc3ccnc(Nc4ccc(OCc5ccccc5)c(Cl)c4)c3c2)cc1)N1CCOCC1` [compound 55, N-(4-(Benzyloxy)-3-chlorophenyl)-7-(4-(morpholinosulfonyl)phenyl)isoquinolin-1-amine], which “L. major EC50 Promast” value [4] is on record?
A: complete loss in activity

Q: Which results are given for “N-(3-Chloro-4-((3-fluorobenzyl)oxy)phenyl)-6-(4-((4-methyl-1,4-diazepan-1-yl)sulfonyl)phenyl)thieno[3,2-d]pyrimidin-4-amine [compound 91]”?
A: HepG2 TC50 [2]: >15 µM; EC50 [3]: > 50 µM

Q: Which EC50 [1] does the source give for “N-(3-Chloro-4-((3-fluorobenzyl)oxy)phenyl)-6-(3-morpholinophenyl)thieno[3,2-d]pyrimidin-4-amine [compound 85]” here?
A: 0.86 µM

Q: And the “HepG2 TC50” value [2]?
A: >15 µM

Q: What about the EC50 [3] of the same compound?
A: > 50 µM

Q: What about the EC50 [4] of the same compound?
A: > 15 µM

Q: Which “P. falciparum D6 EC50” value [1] does the source give for `CN1CCN(S(=O)(=O)c2ccc(-c3ccc4nccc(Nc5ccc(OCc6cccc(F)c6)c(Cl)c5)c4c3)cc2)CC1` [compound 49, N-(3-Chloro-4-((3-fluorobenzyl)oxy)phenyl)-6-(4-((4-methylpiperazin-1-yl)sulfonyl)phenyl)quinolin-4-amine] here?
A: complete loss in activity

Q: Which EC50 [1] does the source give for “N-(3-Chloro-4-((3-fluorobenzyl)oxy)phenyl)-6-(4-((4-methylpiperazin-1-yl)sulfonyl)phenyl)thieno[3,2-d]pyrimidin-4-amine [compound 89]” here?
A: 0.021 µM

Q: What about the “HepG2 TC50” value [2] of the same compound?
A: >15 µM

Q: What about the EC50 [3] of the same compound?
A: 5.5 µM

Q: What about the EC50 [4] of the same compound?
A: 3.4 µM
